Test system: M17-TAU P301L cells
Experiment: Tau-induced toxicity experiment: LDH leakage of retinoic acid incubated M17-TAU P301L cells
Format: cell-based
Conditions: Homo sapiens, Neuroblastoma cell, 168 h; reduction of LDH activity of retinoic acid incubated M17-TAU P301L neuroblastoma cells; 7 days incubation; Promega Cytotox 96 assay
Text: A TAU expression plasmid was constructed by sub-cloning the cDNA of human TAU-P301L (encoding for TAU with proline 301 substituted by a leucine residue) into mammalian expression vector pcDNA3.1 resulting in plasmid pcDNA3.1-TAU P301L. Plasmids pcDNA3.1 and pcDNA3.1-TAU P301L were transfected to human neuroblastoma cells ([…]; ATCC No. CRL-2267) and independent clonal lines with the plasmids stably integrated into the genome were selected. […] Expression of the TAU P301L genes in the cell lines was confirmed by Western analysis.
In degenerated or dead cells lactate dehydrogenase (LDH) is leaked out of the cells into the extracellular environment due to a loss of plasma-membrane integrity. This principle was used to determine cytotoxicity by quantifying the level of leaked LDH into the growth medium.
The detailed method for determining TAU cytotoxicity was as follows: From appropriate precultures of M17-3.1 and M17-TAU(P301L) cells were seeded at 2500 cells/cm2 in Optimem Reduced Serum without phenol red (Gibco, Cat. 31985-047) supplemented with 1% fetal calf serum, 1 mM sodium pyruvate, 1× non-essential amino acids, 500 μg/ml G418 0.5× antibiotic/antimycotic. After 3 h of incubation at 37° C./5% CO2 1 volume of Optimem Reduced Serum (same as described above; except without fetal calf serum) supplemented with 2.5 μM retinoic acid (RA) was added. The cells were further incubated for 7 days. Subsequently, LDH activity was determined using Promega Cytotox 96 Non-Radioactive cytotoxicity assay, (Cat. G1780) according the supplier's instructions.
The M17-TAU P301L cell line made it possible to assess the ability of novel compounds to counteract TAU cytotoxicity. […] These measurements were used to calculate EC50 values of table 2.
Exemplary compounds of the present invention are shown in table 2, with their chemical name and their EC50 value (expressed in nM) as determined from example 75 in the Tau-induced toxicity experiment.

Structure (SMILES)	EC50
O=C(NCCc1c[nH]c2ccc(Cl)cc12)c1ccc(-c2ccccc2)cc1 [Cpd002, N-(2-(5-chloro-1H-indol-3-yl)ethyl)biphenyl-4-carboxamide]	130 nM
O=C(NCCc1c[nH]c2ccc(F)cc12)c1ccc(-c2ccccc2)cc1 [Cpd003, N-(2-(5-fluoro-1H-indol-3-yl)ethyl)biphenyl-4-carboxamide]	448 nM
Cc1ccc2[nH]cc(CCNC(=O)c3ccc(-c4ccccc4)cc3)c2c1 [Cpd004, N-(2-(5-methyl-1H-indol-3-yl)ethyl)biphenyl-4-carboxamide]	238 nM
CCOC(=O)c1cnn(-c2ccc(C(=O)NCCc3c[nH]c4ccc(C)cc34)cc2)c1N [Cpd005, ethyl 5-amino-1-(4-(2-(5-methyl-1H-indol-3-yl)ethylcarbamoyl)phenyl)-1H-pyrazole-4-carboxylate]	297 nM
O=C(NCCc1c[nH]c2ccc(Cl)cc12)c1ccnc(N2CCOCC2)c1 [Cpd006, N-(2-(5-chloro-1H-indol-3-yl)ethyl)-2-morpholinoisonicotinamide]	876 nM
O=C(NCCc1c[nH]c2ccc(F)cc12)c1ccnc(N2CCOCC2)c1 [Cpd007, N-(2-(5-fluoro-1H-indol-3-yl)ethyl)-2-morpholinoisonicotinamide]	1080 nM
O=C(NCCc1c[nH]c2ccc(Cl)cc12)c1ccccc1-c1ccccc1 [Cpd008, N-(2-(5-chloro-1H-indol-3-yl)ethyl)biphenyl-2-carboxamide]	249 nM
O=C(NCCc1c[nH]c2ccc(Cl)cc12)c1cccc(-c2ccccc2)c1 [Cpd010, N-(2-(5-chloro-1H-indol-3-yl)ethyl)biphenyl-3-carboxamide]	187 nM
Cc1cccc(C)c1-c1ccc(C(=O)NCCc2c[nH]c3ccc(Cl)cc23)cc1 [Cpd011, N-(2-(5-chloro-1H-indol-3-yl)ethyl)-2′,6′-dimethylbiphenyl-4-carboxamide]	236 nM
O=C(NCCc1c[nH]c2ccc(Cl)cc12)c1cccc(-c2ccc(O)cc2)c1 [Cpd013, N-(2-(5-chloro-1H-indol-3-yl)ethyl)-4′-hydroxybiphenyl-3-carboxamide]	77 nM
O=C(NCCc1c[nH]c2ccc(Cl)cc12)c1ccc(-c2ccc(O)cc2)cc1 [Cpd014, N-(2-(5-chloro-1H-indol-3-yl)ethyl)-4′-hydroxybiphenyl-4-carboxamide]	57 nM
Cc1ccccc1-c1ccccc1C(=O)NCCc1c[nH]c2ccc(Cl)cc12 [Cpd015, N-(2-(5-chloro-1H-indol-3-yl)ethyl)-2′-methylbiphenyl-2-carboxamide]	381 nM
Cc1cccc(-c2cccc(C(=O)NCCc3c[nH]c4ccc(Cl)cc34)c2)c1 [Cpd019, N-(2-(5-chloro-1H-indol-3-yl)ethyl)-3′-methylbiphenyl-3-carboxamide]	709 nM
Cc1ccc(-c2ccccc2C(=O)NCCc2c[nH]c3ccc(Cl)cc23)cc1 [Cpd021, N-(2-(5-chloro-1H-indol-3-yl)ethyl)-4′-methylbiphenyl-2-carboxamide]	237 nM
Cc1ccc(-c2cccc(C(=O)NCCc3c[nH]c4ccc(Cl)cc34)c2)cc1 [Cpd022, N-(2-(5-chloro-1H-indol-3-yl)ethyl)-4′-methylbiphenyl-3-carboxamide]	354 nM
Cc1ccc(-c2ccc(C(=O)NCCc3c[nH]c4ccc(Cl)cc34)cc2)cc1 [Cpd023, N-(2-(5-chloro-1H-indol-3-yl)ethyl)-4′-methylbiphenyl-4-carboxamide]	235 nM
O=C(NCCc1c[nH]c2ccc(Cl)cc12)c1ccc(N2CCOCC2)nc1 [Cpd024, N-(2-(5-chloro-1H-indol-3-yl)ethyl)-6-morpholinonicotinamide]	765 nM

Structure (SMILES)	EC50
O=C(NCCc1c[nH]c2ccc(Cl)cc12)c1ccccc1-n1cccn1 [Cpd025, N-(2-(5-chloro-1H-indol-3-yl)ethyl)-2-(1H-pyrazol-1-yl)benzamide]	760 nM
COc1cccc(-c2ccccc2C(=O)NCCc2c[nH]c3ccc(Cl)cc23)c1 [Cpd029, N-(2-(5-chloro-1H-indol-3-yl)ethyl)-3′-methoxybiphenyl-2-carboxamide]	523 nM
COc1ccc(-c2ccccc2C(=O)NCCc2c[nH]c3ccc(Cl)cc23)cc1 [Cpd032, N-(2-(5-chloro-1H-indol-3-yl)ethyl)-4′-methoxybiphenyl-2-carboxamide]	200 nM
COc1ccc(-c2cccc(C(=O)NCCc3c[nH]c4ccc(Cl)cc34)c2)cc1 [Cpd033, N-(2-(5-chloro-1H-indol-3-yl)ethyl)-4′-methoxybiphenyl-3-carboxamide]	223 nM
COc1ccc(-c2ccc(C(=O)NCCc3c[nH]c4ccc(Cl)cc34)cc2)cc1 [Cpd034, N-(2-(5-chloro-1H-indol-3-yl)ethyl)-4′-methoxybiphenyl-4-carboxamide]	91 nM
O=C(NCCc1c[nH]c2ccc(Cl)cc12)c1ccccc1-c1ccccc1F [Cpd035, N-(2-(5-chloro-1H-indol-3-yl)ethyl)-2′-fluorobiphenyl-2-carboxamide]	165 nM
O=C(NCCc1c[nH]c2ccc(Cl)cc12)c1cccc(-c2ccccc2F)c1 [Cpd036, N-(2-(5-chloro-1H-indol-3-yl)ethyl)-2′-fluorobiphenyl-3-carboxamide]	139 nM
O=C(NCCc1c[nH]c2ccc(Cl)cc12)c1ccc(-c2ccccc2F)cc1 [Cpd037, N-(2-(5-chloro-1H-indol-3-yl)ethyl)-2′-fluorobiphenyl-4-carboxamide]	61 nM
O=C(NCCc1c[nH]c2ccc(Cl)cc12)c1ccccc1-c1cccc(F)c1 [Cpd038, N-(2-(5-chloro-1H-indol-3-yl)ethyl)-3′-fluorobiphenyl-2-carboxamide]	226 nM
O=C(NCCc1c[nH]c2ccc(Cl)cc12)c1ccc(-c2cccc(F)c2)cc1 [Cpd039, N-(2-(5-chloro-1H-indol-3-yl)ethyl)-3′-fluorobiphenyl-4-carboxamide]	139 nM
O=C(NCCc1c[nH]c2ccc(Cl)cc12)c1ccccc1-c1ccc(F)cc1 [Cpd040, N-(2-(5-chloro-1H-indol-3-yl)ethyl)-4′-fluorobiphenyl-2-carboxamide]	208 nM
O=C(NCCc1c[nH]c2ccc(Cl)cc12)c1cccc(-c2ccc(F)cc2)c1 [Cpd041, N-(2-(5-chloro-1H-indol-3-yl)ethyl)-4′-fluorobiphenyl-3-carboxamide]	186 nM
O=C(NCCc1c[nH]c2ccc(Cl)cc12)c1ccc(-c2ccc(F)cc2)cc1 [Cpd042, N-(2-(5-chloro-1H-indol-3-yl)ethyl)-4′-fluorobiphenyl-4-carboxamide]	228 nM
N#Cc1ccccc1-c1cccc(C(=O)NCCc2c[nH]c3ccc(Cl)cc23)c1 [Cpd043, N-(2-(5-chloro-1H-indol-3-yl)ethyl)-2′-cyanobiphenyl-3-carboxamide]	169 nM
N#Cc1ccccc1-c1ccc(C(=O)NCCc2c[nH]c3ccc(Cl)cc23)cc1 [Cpd044, N-(2-(5-chloro-1H-indol-3-yl)ethyl)-2′-cyanobiphenyl-4-carboxamide]	75 nM
O=C(NCCc1c[nH]c2ccc(Cl)cc12)c1cccc(-c2ccncc2)c1 [Cpd045, N-(2-(5-chloro-1H-indol-3-yl)ethyl)-3-(pyridin-4-yl)benzamide]	327 nM
O=C(NCCc1c[nH]c2ccc(Cl)cc12)c1ccc(-c2ccncc2)cc1 [Cpd046, N-(2-(5-chloro-1H-indol-3-yl)ethyl)-4-(pyridin-4-yl)benzamide]	269 nM
